In patent US10717714B2, “Reactive ultraviolet absorber and application thereof” (CHITEC TECHNOLOGY CO., LTD., priority 2017, dated 2020):

Assay: Thermal stability test (Gardner color of DMF solution before and after 150° C. for 3 hours)
Assay type: physicochemical
Settings: for Color (Gardner color scale), after thermal processing for 3 hours / Color (Gardner color scale), initial: 2 g in 10 ml DMF; for Color (Gardner color scale), after thermal processing for 3 hours: 150° C. for 3 hours; for Color (Gardner color scale), initial: before thermal processing; for Change in color (delta color): before and after heating at 150° C. for 3 hours
Method: 2 g each of the reactive UV absorber I of the present invention, the comparative reactive UV absorber A, and the comparative reactive UV absorber B represented by the following formula B (an embodiment of reactive UV absorber with formula (IIIb) disclosed by U.S. Pat. No. 5,459,222) were respectively dissolved in 10 ml of dimethylformamide (DMF), and the obtained dimethylformamide solutions were subjected to thermal processing at 150° C. for 3 hours. The Gardner color scales of the solutions were measured by colorimeter (Lovibond PFXi-195).

| SMILES | Color (Gardner color scale), after thermal processing for 3 hours | Color (Gardner color scale), initial | Change in color (delta color) |
| --- | --- | --- | --- |
| CC(C)(C)c1cc(CCC(=O)N(CCO)CCO)cc(-n2n3c4ccccc4n23)c1O [Comparative reactive UV absorber A] | 9.1 | 5.4 | 3.7 |
| Cc1cc(CN(CCO)CCO)c(O)c(-n2n3c4ccccc4n23)c1 [Comparative reactive UV absorber B] | 7.2 | 4.2 | 3.0 |
